Assay results from the NIST ThermoML archive (doi:10.1021/je025657+).
Where “and” joins values, the source holds several entries; their conditions need not be identical. Equal values may be shown once.

COC(F)(F)C(F)(F)F [methyl pentafluoroethyl ether]
Conditions	mass density [kg/m3]
240 K, 142.7 kPa, Liquid	1425.44
240 K, 525.8 kPa, Liquid	1426.3
240 K, 1016.6 kPa, Liquid	1427.42
240 K, 1498.9 kPa, Liquid	1428.49
240 K, 2020 kPa, Liquid	1429.64
240 K, 2495.8 kPa, Liquid	1430.67
240 K, 3020.1 kPa, Liquid	1431.83
240 K, 3526.2 kPa, Liquid	1432.91
240 K, 4022.9 kPa, Liquid	1433.98
240 K, 4516.7 kPa, Liquid	1435.03
240 K, 5006.8 kPa, Liquid	1436.06
240 K, 5507.4 kPa, Liquid	1437.1
240 K, 6031.3 kPa, Liquid	1438.18
240 K, 6522.4 kPa, Liquid	1439.2
240 K, 6991.3 kPa, Liquid	1440.14
250 K, 508.4 kPa, Liquid	1401.06
250 K, 999.4 kPa, Liquid	1402.28
250 K, 1512.6 kPa, Liquid	1403.57
250 K, 1981.4 kPa, Liquid	1404.73
250 K, 2484.2 kPa, Liquid	1405.96
250 K, 3006.1 kPa, Liquid	1407.22
250 K, 3493.4 kPa, Liquid	1408.39
250 K, 4031.6 kPa, Liquid	1409.66
250 K, 4527.8 kPa, Liquid	1410.82
250 K, 5017.1 kPa, Liquid	1411.96
250 K, 5520.4 kPa, Liquid	1413.12
250 K, 5982.1 kPa, Liquid	1414.17
250 K, 6505.2 kPa, Liquid	1415.37
250 K, 6941.8 kPa, Liquid	1416.34
260 K, 86.5 kPa, Liquid	1374.31
260 K, 500.8 kPa, Liquid	1375.48
260 K, 1002.7 kPa, Liquid	1376.9
260 K, 1516.5 kPa, Liquid	1378.35
260 K, 2001 kPa, Liquid	1379.71
260 K, 2509.7 kPa, Liquid	1381.11
260 K, 3006.5 kPa, Liquid	1382.45
260 K, 3509.7 kPa, Liquid	1383.8
260 K, 4009.1 kPa, Liquid	1385.14
260 K, 4516.6 kPa, Liquid	1386.48
260 K, 5008.9 kPa, Liquid	1387.75
260 K, 5494.8 kPa, Liquid	1389
260 K, 6029.6 kPa, Liquid	1390.36
260 K, 6497.8 kPa, Liquid	1391.53
260 K, 6976.1 kPa, Liquid	1392.71
270 K, 526.2 kPa, Liquid	1348.82
270 K, 1033.1 kPa, Liquid	1350.45
270 K, 1545.3 kPa, Liquid	1352.07
270 K, 2026.1 kPa, Liquid	1353.57
270 K, 2522.2 kPa, Liquid	1355.11
270 K, 3044.2 kPa, Liquid	1356.7
270 K, 3549.7 kPa, Liquid	1358.22
270 K, 3956.7 kPa, Liquid	1359.43
270 K, 4491.8 kPa, Liquid	1360.99
270 K, 5023.1 kPa, Liquid	1362.54
270 K, 5514.7 kPa, Liquid	1363.95
270 K, 6030.4 kPa, Liquid	1365.42
270 K, 6512.4 kPa, Liquid	1366.76
270 K, 6977.7 kPa, Liquid	1367.99
280 K, 445.3 kPa, Liquid	1320.87
280 K, 957.2 kPa, Liquid	1322.76
280 K, 1474.3 kPa, Liquid	1324.63
280 K, 1861.1 kPa, Liquid	1326.03
280 K, 2459.7 kPa, Liquid	1328.12
280 K, 2951.9 kPa, Liquid	1329.83
280 K, 3497.7 kPa, Liquid	1331.69
280 K, 3963.9 kPa, Liquid	1333.26
280 K, 4513.2 kPa, Liquid	1335.09
280 K, 4981.9 kPa, Liquid	1336.62
280 K, 5492.2 kPa, Liquid	1338.26
280 K, 5847.1 kPa, Liquid	1339.41
280 K, 6466.8 kPa, Liquid	1341.37
280 K, 7194.3 kPa, Liquid	1343.64
290 K, 83.3 kPa, Liquid	1290.78
290 K, 504.8 kPa, Liquid	1292.57
290 K, 981.6 kPa, Liquid	1294.58
290 K, 1520.9 kPa, Liquid	1296.8
290 K, 2011.5 kPa, Liquid	1298.79
290 K, 2520.4 kPa, Liquid	1300.82
290 K, 2991.9 kPa, Liquid	1302.67
290 K, 3491.2 kPa, Liquid	1304.61
290 K, 4006.3 kPa, Liquid	1306.56
290 K, 4525.3 kPa, Liquid	1308.51
290 K, 4985.1 kPa, Liquid	1310.22
290 K, 5527.4 kPa, Liquid	1312.2
290 K, 6024.9 kPa, Liquid	1313.97
290 K, 6484.8 kPa, Liquid	1315.61
290 K, 6967.8 kPa, Liquid	1317.32
300 K, 45.7 kPa, Gas	2.84
300 K, 56.7 kPa, Gas	3.73
300 K, 82 kPa, Gas	5.31
300 K, 93.3 kPa, Gas	6.05
300 K, 98.2 kPa, Gas	6.15
300 K, 116.1 kPa, Gas	7.55
300 K, 131.7 kPa, Gas	8.6
300 K, 165.9 kPa, Gas	10.97
300 K, 188.8 kPa, Gas	12.58
300 K, 218.2 kPa, Gas	15.51
300 K, 225.7 kPa, Liquid	1260.66
300 K, 238.5 kPa, Liquid	1260.72
300 K, 491.2 kPa, Liquid	1262.72
300 K, 953.1 kPa, Liquid	1264.98
300 K, 1060.7 kPa, Liquid	1264.75
300 K, 1531 kPa, Liquid	1267.74
300 K, 2019 kPa, Liquid	1270.02
300 K, 2031.9 kPa, Liquid	1269.32
300 K, 2496.4 kPa, Liquid	1272.22
300 K, 2993.2 kPa, Liquid	1274.45
300 K, 3055.9 kPa, Liquid	1273.93
300 K, 3514 kPa, Liquid	1276.75
300 K, 4031 kPa, Liquid	1279
300 K, 4031.8 kPa, Liquid	1278.16
300 K, 4522.9 kPa, Liquid	1281.1
300 K, 4978 kPa, Liquid	1283
300 K, 5197 kPa, Liquid	1282.99
300 K, 5491.3 kPa, Liquid	1285.12
300 K, 5997.8 kPa, Liquid	1287.18
300 K, 6173.2 kPa, Liquid	1286.91
300 K, 6524.7 kPa, Liquid	1289.29
300 K, 7023.9 kPa, Liquid	1291.24
300 K, 7126.4 kPa, Liquid	1290.5
310 K, 21.5 kPa, Gas	1.25
310 K, 31.7 kPa, Gas	1.86
310 K, 97.3 kPa, Gas	5.82
310 K, 144.4 kPa, Gas	8.89
310 K, 195.7 kPa, Gas	12.34
310 K, 245.2 kPa, Gas	15.73
310 K, 276.7 kPa, Gas	17.86
310 K, 300.3 kPa, Liquid	1229.27
310 K, 312.6 kPa, Liquid	1229.37
310 K, 517 kPa, Liquid	1231.54
310 K, 1007.8 kPa, Liquid	1234.36
310 K, 1029.3 kPa, Liquid	1233.39
310 K, 1513.8 kPa, Liquid	1237.16
310 K, 2033.1 kPa, Liquid	1239.99
310 K, 2065.7 kPa, Liquid	1238.99
310 K, 2524.9 kPa, Liquid	1242.6
310 K, 3064.4 kPa, Liquid	1245.4
310 K, 3131.6 kPa, Liquid	1244.48
310 K, 3532.8 kPa, Liquid	1247.78
310 K, 3972.8 kPa, Liquid	1249.95
310 K, 4126.7 kPa, Liquid	1249.38
310 K, 4507.3 kPa, Liquid	1252.57
310 K, 5034.7 kPa, Liquid	1255.08
310 K, 5145.5 kPa, Liquid	1254.18
310 K, 5514.9 kPa, Liquid	1257.34
310 K, 6031.8 kPa, Liquid	1259.71
310 K, 6158.3 kPa, Liquid	1258.81
310 K, 6533.8 kPa, Liquid	1261.96
310 K, 7010.8 kPa, Liquid	1264.09
310 K, 7224 kPa, Liquid	1263.45
320 K, 61.7 kPa, Gas	3.58
320 K, 90.4 kPa, Gas	5.23
320 K, 101.6 kPa, Gas	5.98
320 K, 132 kPa, Gas	7.77
320 K, 155.5 kPa, Gas	9.32
320 K, 191.5 kPa, Gas	11.5
320 K, 213.2 kPa, Gas	12.95
320 K, 276.1 kPa, Gas	17.25
320 K, 336.5 kPa, Gas	21.52
320 K, 383 kPa, Gas	24.92
320 K, 384.9 kPa, Gas	25.11
320 K, 389.1 kPa, Gas	25.46
320 K, 413.8 kPa, Liquid	1196.33
320 K, 506.3 kPa, Liquid	1198.36
320 K, 1023.1 kPa, Liquid	1201.87
320 K, 1053 kPa, Liquid	1200.63
320 K, 1521.8 kPa, Liquid	1205.15
320 K, 2002.9 kPa, Liquid	1208.23
320 K, 2051.9 kPa, Liquid	1207.02
320 K, 2517.3 kPa, Liquid	1211.43
320 K, 3022.6 kPa, Liquid	1214.49
320 K, 3053.1 kPa, Liquid	1213.09
320 K, 3517.5 kPa, Liquid	1217.45
320 K, 4012.9 kPa, Liquid	1220.32
320 K, 4120.2 kPa, Liquid	1219.2
320 K, 4543.1 kPa, Liquid	1223.3
320 K, 5018.6 kPa, Liquid	1225.9
320 K, 5085.4 kPa, Liquid	1224.49
320 K, 5551.9 kPa, Liquid	1228.77
320 K, 5992.8 kPa, Liquid	1231.09
320 K, 6206.6 kPa, Liquid	1230.35
320 K, 6495.8 kPa, Liquid	1233.69
320 K, 6965.6 kPa, Liquid	1236.06
320 K, 7182.7 kPa, Liquid	1235.21
330 K, 70.8 kPa, Gas	3.97
330 K, 98.4 kPa, Gas	5.48
330 K, 103.9 kPa, Gas	5.88
330 K, 151.6 kPa, Gas	8.67
330 K, 169.4 kPa, Gas	9.72
330 K, 219.7 kPa, Gas	12.83
330 K, 235.2 kPa, Gas	13.71
330 K, 295.3 kPa, Gas	17.66
330 K, 307.4 kPa, Gas	18.42
330 K, 315.2 kPa, Gas	18.98
330 K, 375.8 kPa, Gas	23.12
330 K, 444.8 kPa, Gas	28.23
330 K, 472.9 kPa, Gas	30.25
330 K, 547.4 kPa, Liquid	1161.55
330 K, 1004 kPa, Liquid	1165.27
330 K, 1009.1 kPa, Liquid	1167.02
330 K, 1493.2 kPa, Liquid	1170.86
330 K, 1999 kPa, Liquid	1172.99

mass density
Conditions	240 K	250 K	260 K	270 K	280 K	290 K	300 K	310 K	320 K
Gas	–	–	–	–	–	–	–	23.61 kg/m3	29.81 kg/m3
Liquid	1425.22 kg/m3	1399.85 kg/m3	1374.2 kg/m3	1347.19 kg/m3	1319.62 kg/m3	1291.09 kg/m3	1260.39 kg/m3 and 1261.37 kg/m3 and 1261.41 kg/m3	1230.28 kg/m3	1196.29 kg/m3 and 1197.68 kg/m3
